Test results as given in article PMC7026418, “The kinase polypharmacology landscape of clinical PARP inhibitors” (Scientific Reports, 2020).
Where two headings read alike, the source gives them in different places. Each block holds one molecule with its values, some of them ahead of it.

Columns and labels:
Experiment in all cases: biochemical
Parameters in all cases: DiscoveRx KINOMEscan active site-directed competition binding; percent of control kinase bound to immobilised ligand
[1] = target: MET (Homo sapiens, UniProt P08581)
[2] = target: WNK4 (Homo sapiens, UniProt Q96J92)
[3] = target: ALK(L1196M) (Homo sapiens, UniProt Q9UM73, L1196M)
[4] = target: T1, EPHB1 (Homo sapiens, UniProt P54762)
T1 sequence (P54762 1-984): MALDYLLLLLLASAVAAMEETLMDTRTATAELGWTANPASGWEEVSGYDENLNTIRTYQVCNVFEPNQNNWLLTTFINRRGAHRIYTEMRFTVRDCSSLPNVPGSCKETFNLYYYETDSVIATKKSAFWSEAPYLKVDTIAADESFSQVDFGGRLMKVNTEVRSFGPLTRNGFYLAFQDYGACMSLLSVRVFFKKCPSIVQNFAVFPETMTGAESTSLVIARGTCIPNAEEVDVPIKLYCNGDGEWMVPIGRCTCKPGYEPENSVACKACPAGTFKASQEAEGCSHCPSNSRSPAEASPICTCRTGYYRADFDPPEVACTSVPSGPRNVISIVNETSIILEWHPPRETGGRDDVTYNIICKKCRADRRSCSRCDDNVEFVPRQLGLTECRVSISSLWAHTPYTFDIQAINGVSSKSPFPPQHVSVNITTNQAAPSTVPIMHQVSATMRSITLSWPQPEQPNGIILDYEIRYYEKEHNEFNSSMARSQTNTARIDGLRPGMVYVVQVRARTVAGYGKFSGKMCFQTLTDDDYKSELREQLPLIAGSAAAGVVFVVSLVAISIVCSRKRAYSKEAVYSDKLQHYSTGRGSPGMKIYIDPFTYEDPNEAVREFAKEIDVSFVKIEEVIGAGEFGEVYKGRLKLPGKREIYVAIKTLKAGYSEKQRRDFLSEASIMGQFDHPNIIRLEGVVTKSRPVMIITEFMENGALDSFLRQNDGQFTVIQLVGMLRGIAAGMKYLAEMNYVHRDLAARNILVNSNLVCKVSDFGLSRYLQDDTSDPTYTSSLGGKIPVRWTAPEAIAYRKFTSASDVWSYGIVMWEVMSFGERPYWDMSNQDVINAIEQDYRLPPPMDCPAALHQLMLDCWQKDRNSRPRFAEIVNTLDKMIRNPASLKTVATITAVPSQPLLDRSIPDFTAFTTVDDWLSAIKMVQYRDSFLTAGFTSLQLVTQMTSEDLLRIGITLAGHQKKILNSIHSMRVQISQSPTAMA

[5] = target: T2, MUSK (Homo sapiens, UniProt O15146)
T2 sequence (O15146 1-869): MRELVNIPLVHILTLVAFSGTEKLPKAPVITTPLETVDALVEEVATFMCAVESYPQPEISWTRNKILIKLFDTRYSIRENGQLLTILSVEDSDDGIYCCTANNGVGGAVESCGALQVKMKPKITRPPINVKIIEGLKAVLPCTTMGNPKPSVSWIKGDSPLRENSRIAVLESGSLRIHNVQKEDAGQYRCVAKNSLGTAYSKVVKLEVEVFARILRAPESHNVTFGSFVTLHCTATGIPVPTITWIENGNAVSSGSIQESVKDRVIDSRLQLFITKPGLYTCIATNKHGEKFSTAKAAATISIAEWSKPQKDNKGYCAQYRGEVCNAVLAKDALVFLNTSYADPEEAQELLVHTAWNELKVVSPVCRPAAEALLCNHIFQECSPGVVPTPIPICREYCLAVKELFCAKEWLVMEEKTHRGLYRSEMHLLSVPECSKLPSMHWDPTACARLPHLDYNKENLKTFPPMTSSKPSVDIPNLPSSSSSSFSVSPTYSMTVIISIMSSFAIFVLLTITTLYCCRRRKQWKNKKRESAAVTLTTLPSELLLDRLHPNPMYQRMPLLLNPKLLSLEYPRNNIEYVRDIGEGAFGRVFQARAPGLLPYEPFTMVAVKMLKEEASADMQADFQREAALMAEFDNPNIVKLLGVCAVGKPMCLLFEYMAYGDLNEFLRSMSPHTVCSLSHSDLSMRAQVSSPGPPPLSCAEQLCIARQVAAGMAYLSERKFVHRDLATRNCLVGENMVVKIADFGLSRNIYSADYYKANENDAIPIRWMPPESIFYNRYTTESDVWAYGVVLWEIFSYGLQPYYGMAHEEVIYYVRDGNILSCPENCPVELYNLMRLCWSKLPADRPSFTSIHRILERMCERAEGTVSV

[6] = target: T3, ABL1(M351T)-phosphorylated (Homo sapiens, UniProt P00519, M351T)
T3 construct: phosphorylated

[7] = target: PAK1 (Homo sapiens, UniProt Q13153)
[8] = target: T4, DMPK2 (Homo sapiens, UniProt Q6DT37)
T4 construct: gene CDC42BPG

[9] = read-out: Niraparib (MK-4827) / %Ctrl @ 10000nM
[10] = read-out: Olaparib / %Ctrl @ 10000nM
[11] = read-out: Rucaparib / %Ctrl @ 10000nM, binding competition, % of control
[12] = read-out: Talazoparib (BMN 673) / %Ctrl @ 10000nM

T4 sequence (Q6DT37 whole entry): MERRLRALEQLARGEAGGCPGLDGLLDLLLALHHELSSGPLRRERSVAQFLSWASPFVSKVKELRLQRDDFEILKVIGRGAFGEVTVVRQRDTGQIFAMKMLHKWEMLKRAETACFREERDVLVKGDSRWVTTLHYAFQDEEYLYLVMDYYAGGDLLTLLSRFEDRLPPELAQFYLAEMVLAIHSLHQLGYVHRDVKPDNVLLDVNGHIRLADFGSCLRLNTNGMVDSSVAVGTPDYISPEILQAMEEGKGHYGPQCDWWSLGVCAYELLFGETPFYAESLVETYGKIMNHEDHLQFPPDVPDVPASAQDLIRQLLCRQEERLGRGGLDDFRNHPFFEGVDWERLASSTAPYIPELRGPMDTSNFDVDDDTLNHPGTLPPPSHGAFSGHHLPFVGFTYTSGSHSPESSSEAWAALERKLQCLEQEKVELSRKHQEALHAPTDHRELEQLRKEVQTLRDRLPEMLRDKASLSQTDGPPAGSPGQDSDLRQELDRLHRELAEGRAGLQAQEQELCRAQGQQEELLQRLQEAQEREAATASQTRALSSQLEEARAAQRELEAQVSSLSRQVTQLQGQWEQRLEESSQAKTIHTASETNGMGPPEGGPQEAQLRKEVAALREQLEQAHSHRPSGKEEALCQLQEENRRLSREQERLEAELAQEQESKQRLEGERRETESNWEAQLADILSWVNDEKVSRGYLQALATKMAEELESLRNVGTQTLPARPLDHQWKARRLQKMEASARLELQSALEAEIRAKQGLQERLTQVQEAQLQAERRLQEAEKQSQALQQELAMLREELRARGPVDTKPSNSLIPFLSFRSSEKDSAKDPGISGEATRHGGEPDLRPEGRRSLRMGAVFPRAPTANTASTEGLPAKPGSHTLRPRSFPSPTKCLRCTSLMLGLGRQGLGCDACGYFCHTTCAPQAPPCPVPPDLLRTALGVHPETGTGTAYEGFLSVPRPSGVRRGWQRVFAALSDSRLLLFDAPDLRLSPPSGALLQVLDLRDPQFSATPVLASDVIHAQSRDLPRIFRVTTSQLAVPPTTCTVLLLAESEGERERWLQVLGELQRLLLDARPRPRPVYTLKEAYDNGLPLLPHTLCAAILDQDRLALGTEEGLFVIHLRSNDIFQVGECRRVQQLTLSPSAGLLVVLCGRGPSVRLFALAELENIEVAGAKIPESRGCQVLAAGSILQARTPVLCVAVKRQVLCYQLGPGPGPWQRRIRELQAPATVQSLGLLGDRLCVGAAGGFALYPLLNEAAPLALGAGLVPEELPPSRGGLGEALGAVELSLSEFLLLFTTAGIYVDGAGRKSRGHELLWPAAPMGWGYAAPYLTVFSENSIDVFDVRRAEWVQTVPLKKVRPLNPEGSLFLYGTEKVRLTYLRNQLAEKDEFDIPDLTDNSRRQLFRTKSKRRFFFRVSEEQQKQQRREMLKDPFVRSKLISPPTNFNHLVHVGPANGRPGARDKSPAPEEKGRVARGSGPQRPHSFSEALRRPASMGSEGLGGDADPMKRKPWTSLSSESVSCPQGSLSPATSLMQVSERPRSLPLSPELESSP
ALK(L1196M), sequence (Q9UM73 whole entry L1196M): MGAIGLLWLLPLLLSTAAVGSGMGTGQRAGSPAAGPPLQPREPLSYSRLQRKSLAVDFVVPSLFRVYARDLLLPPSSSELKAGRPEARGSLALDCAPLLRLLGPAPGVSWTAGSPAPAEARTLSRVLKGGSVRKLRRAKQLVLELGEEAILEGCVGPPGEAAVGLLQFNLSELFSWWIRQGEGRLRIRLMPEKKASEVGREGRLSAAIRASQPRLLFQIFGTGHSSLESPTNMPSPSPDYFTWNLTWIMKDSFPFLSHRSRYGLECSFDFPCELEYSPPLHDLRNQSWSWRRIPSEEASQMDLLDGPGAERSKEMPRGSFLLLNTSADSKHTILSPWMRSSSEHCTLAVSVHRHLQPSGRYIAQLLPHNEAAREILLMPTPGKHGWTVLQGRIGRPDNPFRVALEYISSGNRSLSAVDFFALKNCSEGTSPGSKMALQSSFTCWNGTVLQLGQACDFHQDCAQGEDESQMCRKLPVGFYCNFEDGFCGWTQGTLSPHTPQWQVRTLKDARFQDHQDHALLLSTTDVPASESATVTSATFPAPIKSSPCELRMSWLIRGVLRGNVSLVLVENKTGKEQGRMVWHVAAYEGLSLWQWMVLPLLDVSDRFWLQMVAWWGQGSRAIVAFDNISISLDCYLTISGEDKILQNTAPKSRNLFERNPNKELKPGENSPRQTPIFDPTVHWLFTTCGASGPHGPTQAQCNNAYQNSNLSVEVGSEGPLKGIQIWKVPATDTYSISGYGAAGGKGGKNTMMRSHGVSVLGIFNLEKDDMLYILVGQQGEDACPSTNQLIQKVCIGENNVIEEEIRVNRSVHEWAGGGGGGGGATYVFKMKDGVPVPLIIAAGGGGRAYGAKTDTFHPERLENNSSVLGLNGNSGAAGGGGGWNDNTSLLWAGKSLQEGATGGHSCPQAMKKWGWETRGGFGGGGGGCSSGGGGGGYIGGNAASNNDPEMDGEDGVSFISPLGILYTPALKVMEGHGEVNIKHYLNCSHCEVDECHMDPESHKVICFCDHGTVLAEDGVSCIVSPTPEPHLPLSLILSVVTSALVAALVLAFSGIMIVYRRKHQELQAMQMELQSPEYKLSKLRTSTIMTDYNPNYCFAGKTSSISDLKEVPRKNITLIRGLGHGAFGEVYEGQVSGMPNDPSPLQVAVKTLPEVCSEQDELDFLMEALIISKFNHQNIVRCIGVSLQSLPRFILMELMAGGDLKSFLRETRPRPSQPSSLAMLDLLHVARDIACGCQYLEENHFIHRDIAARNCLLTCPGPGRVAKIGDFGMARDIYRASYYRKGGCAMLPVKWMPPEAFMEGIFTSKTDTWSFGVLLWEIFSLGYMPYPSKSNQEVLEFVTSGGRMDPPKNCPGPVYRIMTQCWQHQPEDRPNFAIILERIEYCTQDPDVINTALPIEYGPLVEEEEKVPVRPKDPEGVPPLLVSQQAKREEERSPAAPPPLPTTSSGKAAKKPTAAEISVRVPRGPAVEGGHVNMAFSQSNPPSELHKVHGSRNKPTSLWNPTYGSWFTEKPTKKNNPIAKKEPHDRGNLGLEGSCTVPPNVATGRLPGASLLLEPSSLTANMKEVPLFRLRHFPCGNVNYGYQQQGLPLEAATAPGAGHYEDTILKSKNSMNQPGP
PAK1, sequence (Q13153 whole entry): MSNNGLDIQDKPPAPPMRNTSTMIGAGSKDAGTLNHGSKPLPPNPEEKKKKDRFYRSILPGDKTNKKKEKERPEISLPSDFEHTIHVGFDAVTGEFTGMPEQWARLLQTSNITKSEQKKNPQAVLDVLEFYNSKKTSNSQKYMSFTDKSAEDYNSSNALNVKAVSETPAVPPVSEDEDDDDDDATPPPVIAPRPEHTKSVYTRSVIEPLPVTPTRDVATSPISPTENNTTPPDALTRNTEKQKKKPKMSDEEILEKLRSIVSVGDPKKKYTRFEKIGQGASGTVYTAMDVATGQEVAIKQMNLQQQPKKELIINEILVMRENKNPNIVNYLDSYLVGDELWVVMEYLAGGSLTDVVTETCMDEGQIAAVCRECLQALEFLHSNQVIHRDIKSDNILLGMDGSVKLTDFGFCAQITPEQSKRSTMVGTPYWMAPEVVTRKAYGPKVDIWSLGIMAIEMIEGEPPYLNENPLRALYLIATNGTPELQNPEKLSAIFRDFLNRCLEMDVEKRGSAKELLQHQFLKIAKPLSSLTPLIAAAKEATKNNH
MET, sequence (P08581 whole entry): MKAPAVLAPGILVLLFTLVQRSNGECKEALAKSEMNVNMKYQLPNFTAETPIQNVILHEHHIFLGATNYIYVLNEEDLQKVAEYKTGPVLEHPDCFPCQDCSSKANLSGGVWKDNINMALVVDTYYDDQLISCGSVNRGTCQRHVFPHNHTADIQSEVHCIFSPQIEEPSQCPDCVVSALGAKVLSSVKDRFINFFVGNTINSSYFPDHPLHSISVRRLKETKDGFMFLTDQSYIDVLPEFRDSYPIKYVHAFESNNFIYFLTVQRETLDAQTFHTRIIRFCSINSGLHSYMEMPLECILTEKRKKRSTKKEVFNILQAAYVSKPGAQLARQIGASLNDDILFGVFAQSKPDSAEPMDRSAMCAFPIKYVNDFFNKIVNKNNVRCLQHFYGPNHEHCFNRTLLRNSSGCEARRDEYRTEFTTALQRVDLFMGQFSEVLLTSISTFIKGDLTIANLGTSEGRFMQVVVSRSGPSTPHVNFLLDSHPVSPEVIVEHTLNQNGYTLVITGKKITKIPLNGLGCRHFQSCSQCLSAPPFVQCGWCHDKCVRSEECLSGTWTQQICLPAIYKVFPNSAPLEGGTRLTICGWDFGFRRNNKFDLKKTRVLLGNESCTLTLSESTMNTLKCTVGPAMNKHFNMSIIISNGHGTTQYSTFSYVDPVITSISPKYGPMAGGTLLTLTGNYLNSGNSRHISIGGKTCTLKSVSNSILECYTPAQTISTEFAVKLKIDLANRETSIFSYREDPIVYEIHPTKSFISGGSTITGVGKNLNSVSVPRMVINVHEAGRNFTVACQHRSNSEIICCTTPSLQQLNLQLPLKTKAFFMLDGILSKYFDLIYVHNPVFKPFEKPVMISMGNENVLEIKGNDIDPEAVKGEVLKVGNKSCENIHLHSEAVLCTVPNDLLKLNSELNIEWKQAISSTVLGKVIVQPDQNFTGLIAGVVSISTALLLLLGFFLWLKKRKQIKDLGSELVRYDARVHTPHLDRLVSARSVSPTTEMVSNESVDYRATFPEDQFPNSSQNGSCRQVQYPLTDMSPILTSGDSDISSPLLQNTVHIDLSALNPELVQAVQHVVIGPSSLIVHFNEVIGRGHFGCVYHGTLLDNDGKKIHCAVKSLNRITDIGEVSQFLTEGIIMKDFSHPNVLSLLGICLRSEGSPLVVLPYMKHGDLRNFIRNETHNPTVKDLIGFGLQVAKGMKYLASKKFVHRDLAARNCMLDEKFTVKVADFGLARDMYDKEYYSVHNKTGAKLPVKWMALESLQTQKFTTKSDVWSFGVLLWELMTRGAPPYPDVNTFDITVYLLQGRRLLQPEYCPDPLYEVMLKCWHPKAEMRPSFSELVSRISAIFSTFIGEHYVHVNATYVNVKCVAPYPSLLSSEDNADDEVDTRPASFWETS

SMILES: NC(=O)c1cccc2cn(-c3ccc([C@@H]4CCCNC4)cc3)nc12 [Niraparib]
percent of control binding at 10 µM [1, 9]: 92%
percent of control binding at 10 µM [2, 9]: 100%
percent of control binding at 10 µM [3, 9]: 81%
percent of control binding at 10 µM [4, 9]: 76%
percent of control binding at 10 µM [5, 9]: 82%
percent of control binding at 10 µM [6, 9]: 100%
percent of control binding at 10 µM [7, 9]: 86%
percent of control binding at 10 µM [8, 9]: 93%

percent of control binding at 10 µM [1, 10]: 91%
percent of control binding at 10 µM [2, 10]: 100%
percent of control binding at 10 µM [3, 10]: 83%
percent of control binding at 10 µM [4, 10]: 99%
percent of control binding at 10 µM [5, 10]: 100%
percent of control binding at 10 µM [6, 10]: 91%
percent of control binding at 10 µM [7, 10]: 91%
percent of control binding at 10 µM [8, 10]: 100%
SMILES: O=C(c1cc(Cc2n[nH]c(=O)c3ccccc23)ccc1F)N1CCN(C(=O)C2CC2)CC1 [Olaparib]

percent of control binding at 10 µM [1, 11]: 92%
percent of control binding at 10 µM [2, 11]: 97%
percent of control binding at 10 µM [3, 11]: 83%
percent of control binding at 10 µM [4, 11]: 100%
percent of control binding at 10 µM [5, 11]: 96%
percent of control binding at 10 µM [6, 11]: 75%
percent of control binding at 10 µM [7, 11]: 75%
percent of control binding at 10 µM [8, 11]: 99%
SMILES: CNCc1ccc(-c2[nH]c3cc(F)cc4c3c2CCNC4=O)cc1 [Rucaparib]

percent of control binding at 10 µM [1, 12]: 99%
percent of control binding at 10 µM [2, 12]: 100%
percent of control binding at 10 µM [3, 12]: 100%
percent of control binding at 10 µM [4, 12]: 94%
percent of control binding at 10 µM [5, 12]: 100%
percent of control binding at 10 µM [6, 12]: 98%
percent of control binding at 10 µM [7, 12]: 93%
percent of control binding at 10 µM [8, 12]: 100%
SMILES: Cn1ncnc1[C@H]1c2n[nH]c(=O)c3cc(F)cc(c23)N[C@@H]1c1ccc(F)cc1 [Talazoparib]
